Measured values from patent US20110046228A1 (priority 2009, published 2011).
Where “and” joins values, the source holds several entries; their conditions need not be identical. Identical values can stand only once. Like-named read-outs stand apart in the source and are kept apart here.

How the values were obtained:
[1] = with a single glass (200-250 mL) of grapefruit juice; cited from earlier work
clinical = settings: both, human, plasma, oral, 0.6 mg; for AUC(0-t): AUC0-t; for AUC(0-inf): AUC0-∞; for CL/F: Weight-Adjusted CL/F
Protocol: This study is an open-label, non-randomized, single-center, one-sequence, two-period drug interaction study conducted in healthy male and female volunteers. Twenty-four (24) non-smoking, non-obese adult volunteers will be enrolled. All subjects will be dosed and studied as a single cohort, with each subject receiving the same treatment in a non-randomized fashion. As described below, a single dose of colchicine, 0.6 mg, will be administered alone on Day 1, and then co-administered with the grapefruit juice on Day 18. Grapefruit juice will be administered for 4 consecutive days (1×240 mL twice daily Days 15-17 and Day 18 (PM) alone and co-administered with a single 0.6 mg colchicine tablet in the morning on Day 18 (AM) (1×240 mL) beginning on the morning of Day 15, with the last 240 mL grapefruit juice dose administered in the evening of Day 18. A 14-day washout period will be completed after the first colchicine dose on Day 1 and prior to the administration of the first grapefruit juice dose on Day 15.
Grapefruit juice ([…] ® brand) will be purchased and stored according to the labeled instructions. Subjects in the study will consume 240 mL (8 fluid ounces) of juice every 12 hours for 8 doses (4 day regimen) to ensure the maximum inhibitory effect.
Following a screening period of up to 28 days, 24 healthy male and female volunteers will be enrolled. Subjects will be confined to the study unit for approximately 1.5 days on two separate occasions starting at least 10 hours prior to dosing on the evening of Day 1 and Day 17 until 24 hours following study drug administration on Day 1 and Day 18. In addition to confinement, study subjects will return to the clinical study site for the collection of blood samples 36, 48, 72, and 96 hours post dosing during both colchicine pharmacokinetic sampling periods. Total study participation, exclusive of up to 28 days of screening, will be approximately 22 days, during which subjects will be confined on two occasions for a total confinement of approximately 3 days.
All subjects will receive a single 0.6 mg dose of colchicine on Day 1, followed by a 14-day washout period in which subjects will not be confined at study site. At discharge on Day 2 (at approximately 8 AM), study subjects will be instructed to return to the clinical site on Days 15 through 17 in the mornings and evenings to consume (1×240 mL, i.e., 8 fluid ounces) grapefruit juice twice daily on Days 15 through 17 in a ‘directly-observed’ fashion. On the evening of Day 17, study participants will return to the clinic for their final study confinement period. In the morning of Day 18, study subjects will receive a single 0.6 mg colchicine dose with a 240 mL serving of grapefruit juice. In the evening of Day 18, study subjects will receive their final 240 mL serving of grapefruit juice administered alone.
A minimum fasting period of 10 hours (overnight fast) will be in effect before administration of colchicine on Day 1 and prior to the administration of colchicine and grapefruit juice on Day 18. Fasting will continue for 4 hours post-dosing on Days 1 and 18 after the morning administration. Grapefruit juice doses administered on Days 15-17 and Day 18 (PM) will not be in a fasted state. For colchicine, medication must be swallowed whole, not chewed. For grapefruit juice, the entire serving must be consumed. For all treatments, the subjects will not be permitted to lie down for the first 4 hours following administration of drug to ensure proper stomach emptying. On both of the confined study days after the morning administrations (Day 1 and Day 18), water will be allowed ad libitum beginning 2 hours post-dose. Intake of all study medications will be supervised. Standardized meals will be served according to a pre-determined schedule throughout the study.
Serial blood samples will be collected by individual venipuncture up to 96 hours following drug administration on Day 1 and Day 18.

[2] = system: individuals with Behcet's syndrome (or disease); settings: adjusted to bodyweight, cited from earlier work
[3] = parameters: AUC0-t, Geometric Mean: unit not given beside the values
[4] = Least Squares Mean, Non-Transformed Data, single 0.6 mg colchicine dose
[5] = Mean, mean of N = 21, single 0.6 mg colchicine
[6] = Median, median of N = 21, single 0.6 mg colchicine
[7] = Geometric Mean, single 0.6 mg colchicine dose, N = 21, based on least squares means of ln-transformed values
[8] = individual subjects, single 0.6 mg colchicine, plasma, A Day 1, A + B Day 18
[9] = maximum of N = 21, single 0.6 mg colchicine, plasma
[10] = mean of N = 21, single 0.6 mg colchicine, plasma
[11] = median of N = 21, single 0.6 mg colchicine, plasma
[12] = minimum of N = 21, single 0.6 mg colchicine, plasma
[13] = single 0.6 mg colchicine dose, plasma

CCOC(=O)C1=C(C)NC(C)=C(C(=O)OC)C1c1cccc(Cl)c1Cl (stereo not shown) [felodipine]
Change in AUC and Cmax of orally administered felodipine [1]: several-fold increase

COc1cc2c(c(OC)c1OC)-c1ccc(OC)c(=O)cc1[C@@H](NC(C)=O)CC2 [Treatment A, (−)-N-[(7S, 12aS)-1,2,3,10-tetramethoxy-9-oxo-5,6,7,9-tetrahydrobenzo[a]heptalen-7-yl]-acetamide]
AUC(0-t) (clinical; [4]): 9.33 ng·h/mL | AUC(0-t) (clinical; [5]): 9.33 ng·h/mL | AUC(0-t) (clinical; [6]): 8.84 ng·h/mL | AUC(0-inf) (clinical; [7]): 10.5 ng·h/mL | AUC(0-inf) (clinical; [4]): 11.1 ng·h/mL | AUC(0-inf) (clinical; [5]): 11.1 ng·h/mL | AUC(0-inf) (clinical; [6]): 10.4 ng·h/mL | Cmax (clinical; [7]): 2.07 ng/mL | Cmax (clinical; [4]): 2.17 ng/mL | Cmax (clinical; [5]): 2.17 ng/mL | Cmax (clinical; [6]): 2.06 ng/mL | Tmax (clinical; [4]): 1.24 h | Tmax (clinical; [5]): 1.24 h | Tmax (clinical; [6]): 1 h | CL/F (clinical; [4]): 12.3 mL/min/kg | CL/F (clinical; [5]): 12.3 mL/min/kg | CL/F (clinical; [6]): 11.3 mL/min/kg | half-life (clinical; t1/2, Least Squares Mean, Non-Transformed Data, single 0.6 mg colchicine dose): 4.64 h | half-life (clinical; t1/2, Mean, mean of N = 21, single 0.6 mg colchicine): 4.64 h | Clinical effect in Behcet's disease ([2]; 1-2 mg daily): reduced the frequency of genital ulcers, erythema nodosum, and arthritis among women and reduced the occurrence of arthritis among men | Clinical effect in Behcet's syndrome ([2]; 1-2.4 mg daily): reduced the frequency of genital ulcers, erythema nodosum, and arthritis among women and reduced the occurrence of arthritis among men | AUC0-∞ [3, 8]: 10.8336 ng·h/mL and 14.15474 ng·h/mL and 9.5485 ng·h/mL and 13.07636 ng·h/mL and 20.67702 ng·h/mL and 9.19604 ng·h/mL and 7.56206 ng·h/mL and 10.95321 ng·h/mL and 12.50531 ng·h/mL and 8.2513 ng·h/mL and 7.55929 ng·h/mL and 21.66786 ng·h/mL and 8.57677 ng·h/mL and 10.79516 ng·h/mL and 4.54846 ng·h/mL and 9.55313 ng·h/mL | CL/F [3, 8]: 55.38 L/h and 42.39 L/h and 62.84 L/h and 57.10 L/h and 45.88 L/h and 29.02 L/h and 65.25 L/h and 79.34 L/h and 54.78 L/h and 57.58 L/h and 51.63 L/h and 57.64 L/h and 47.98 L/h and 72.72 L/h and 79.37 L/h and 27.69 L/h and 58.47 L/h and 69.96 L/h and 55.58 L/h and 131.91 L/h and 62.81 L/h | Kel [3, 8]: 0.1619 h⁻¹ and 0.2194 h⁻¹ and 0.1653 h⁻¹ and 0.1160 h⁻¹ and 0.1881 h⁻¹ and 0.0484 h⁻¹ and 0.2291 h⁻¹ and 0.1859 h⁻¹ and 0.1655 h⁻¹ and 0.1563 h⁻¹ and 0.1843 h⁻¹ and 0.1946 h⁻¹ and 0.1506 h⁻¹ and 0.1355 h⁻¹ and 0.2178 h⁻¹ and 0.0847 h⁻¹ and 0.1512 h⁻¹ and 0.1866 h⁻¹ and 0.1851 h⁻¹ and 0.2814 h⁻¹ and 0.1925 h⁻¹ | Tmax [3, 8]: 1.00 h and 2.00 h | Varea/F [3, 8]: 342.07 L and 193.19 L and 380.20 L and 492.22 L and 243.91 L and 599.39 L and 284.79 L and 426.86 L and 331.07 L and 368.37 L and 280.11 L and 296.22 L and 318.56 L and 536.77 L and 364.36 L and 327.00 L and 386.70 L and 374.82 L and 300.24 L and 468.69 L and 326.22 L | t1/2 [3, 8]: 4.28 h and 3.16 h and 4.19 h and 5.98 h and 3.68 h and 14.32 h and 3.03 h and 3.73 h and 4.43 h and 3.76 h and 3.56 h and 4.60 h and 5.12 h and 3.18 h and 8.19 h and 4.58 h and 3.71 h and 3.74 h and 2.46 h and 3.60 h | AUC0-t, Max [3, 9]: 18.3968 ng·h/mL | AUC0-∞, Max [3, 9]: 21.66786 ng·h/mL | CL/F, Max [3, 9]: 131.91 L/h | Cmax, Max [3, 9]: 3.758 ng/mL | Kel, Max [3, 9]: 0.2814 h⁻¹ | Tmax, Max [3, 9]: 2.00 h | Varea/F, Max [3, 9]: 599.39 L | t1/2, Max [3, 9]: 14.32 h | CL/F, Mean [3, 10]: 60.25 L/h | Kel, Mean [3, 10]: 0.1714 h⁻¹ | Varea/F, Mean [3, 10]: 363.89 L | CL/F, Median [3, 11]: 57.58 L/h | Kel, Median [3, 11]: 0.1843 h⁻¹ | Varea/F, Median [3, 11]: 342.07 L | t1/2, Median [3, 11]: 3.76 h | AUC0-t, Min [3, 12]: 3.83287 ng·h/mL | AUC0-∞, Min [3, 12]: 4.54846 ng·h/mL | CL/F, Min [3, 12]: 27.69 L/h | Cmax, Min [3, 12]: 0.8452 ng/mL | Kel, Min [3, 12]: 0.0484 h⁻¹ | Tmax, Min [3, 12]: 1.00 h | Varea/F, Min [3, 12]: 193.19 L | t1/2, Min [3, 12]: 2.46 h | Bioequivalence of oral colchicine with grapefruit juice vs in the absence of grapefruit juice ([3]; recommended maximum daily amount of grapefruit juice (about 16 fluid ounces daily)): bioequivalent | Kel, Least Squares Mean, Non-Transformed Data [3, 13]: 0.1714 | Varea/F, Least Squares Mean, Non-Transformed Data [3, 13]: 363.89 | AUC0-t, Geometric Mean ([3]; single 0.6 mg colchicine dose, plasma, N = 21, based on least squares means of ln-transformed values): 8806.78
